Assay results taken from publication doi:10.1101/2024.08.19.608619, “Discovery of potent SARS-CoV-2 nsp3 macrodomain inhibitors uncovers lack of translation to cellular antiviral response” (bioRxiv, 2024).
In brackets after ≈: the same amount, converted by molar mass. Several values for one entry are separate records, joined by “and”; a condition that tells them apart may be missing. Equal entries are not always repeated. Where two headings read alike, the source gives them in different places.

What was measured:
[1] = tested on: SARS-CoV-2, isolate USA-WA1/2020; test: microbe, parasite or virus in culture; assay type: cell-based; conditions: HeLa-ACE2 SARS-CoV-2 antiviral effect without P-gp inhibitor; for perc_max_measured: maximum measured response of dose series; for perc_min_measured: minimum measured response of dose series; for EC50: read-out: ec50; for EC90: read-out: ec90
[2] = Hepatic microsomal stability, HLM; assay type: in vitro ADME, human; conditions: In vitro human liver microsomal stability; for perc_remaining_no_cofactor: no cofactor
[3] = Hepatic microsomal stability, MLM; assay type: in vitro ADME
[4] = tested on: HeLa-ACE2 cells; conditions: for perc_max_measured: highest measured response of the dose series; for perc_min_measured: lowest measured response of the dose series
[5] = LogD; conditions: pH 7.4; In vitro LogD
[6] = in vitro; conditions: human, hela-ace2 cells, 50.0
[7] = In vitro kinetic solubility; conditions: In vitro kinetic solubility, ph 7.4
[8] = Permeability Papp (AB) MDR1/MDCKII; conditions: In vitro MDR1-MDCKII permeability; for papp_a_to_b_mean: A to B; for perc_recovery_a_to_b_mean: recovery A to B
[9] = In vitro mouse liver microsomal stability
[10] = protocol HeLa-ACE2 cytotoxicity
[11] = In vitro mouse liver microsomal stability, no cofactor

Structure (SMILES)	perc_max_measured [1]	perc_min_measured [1]	EC50 [1] [µM]	EC90 [1] [µM]	clint [2] [µL/min/mg]	perc_remaining [2] [%]	t_half [2] [min]	perc_remaining_no_cofactor [2] [%]	clint [3, 9] [µL/min/mg]	perc_remaining [3, 9] [%]	t_half [3, 9] [min]	CC50 [4, 10] [µM]	perc_max_measured [4, 10]	perc_min_measured [4, 10]	logd [5]	CC50 at 24 h [6] [µM]	solubility_mean [7] [µM]	papp_a_to_b_mean ([8]; mean) [×10⁻⁶ cm/s]	perc_recovery_a_to_b_mean ([8]; mean) [%]	perc_remaining_no_cofactor [3, 11] [%]	also measured
CC(C)[C@@H](Nc1ncnc2[nH]c(-c3cnn(CCC(N)=O)c3)cc12)c1ccc2c(c1)OCCO2 [ASAP-0008482]	121.913% and 112.19%	97.771% and 96.19%	> 20	> 20	99.0	19.0	16.9	108.0	62.0	36.0	27.1	> 20	111.916% and 92.58%	82.711% and 77.006%	3.0	> 20	236 (≈ 109 µg/mL)	1.46	88.9		perc_remaining_no_cofactor ([3]; In vitro mouse liver microsomal stability; no cofactor): 106.0%
CC(C)[C@@H](Nc1ncnc2[nH]c(-c3ccc4cncn4c3)cc12)c1ccc2c(c1)S(=O)(=O)CCC2 [ASAP-0011215]	92.609%	28.375%	7.12	> 20	210.0	4.0	8.0	97.0	170.0	6.0	9.8				4.0	> 20	14 (≈ 6.81 µg/mL)			87.0	CC50 ([4]; HeLa-ACE2 cytotoxicity): > 20 µM; cc10 ([4]; HeLa-ACE2 cytotoxicity): > 20.0 µM; perc_max_measured ([4]; HeLa-ACE2 cytotoxicity): 108.268%; perc_min_measured ([4]; HeLa-ACE2 cytotoxicity): 81.968%; papp_a_to_b_mean ([8]; no inhibitor): 0.56 ×10⁻⁶ cm/s; perc_recovery_a_to_b_mean ([8]; no inhibitor): 70.8%
CC(C)[C@@H](Nc1ncnc2[nH]c(-c3cnn(CC(N)=O)c3)cc12)c1ccc2c(c1)S(=O)(=O)CCC2 [ASAP-0011432]	127.59%	107.301%	> 20	> 20	115.0	15.0	14.5	103.0	96.0	20.0	17.4	> 20	97.628%	83.24%	2.0	> 20	335 (≈ 165 µg/mL)	0.719	76.6	111.0	cc10 [4, 10]: > 20.0 µM
CC(C)[C@H](Nc1ncnc2[nH]c(-c3cnn(C)c3)cc12)c1ccc2c(c1)S(=O)(=O)CCC2 (single isomer, unassigned) [ASAP-0012327]	111.115%	52.798%	> 20	> 20	169.0	7.0	9.9	95.0	255.0	1.0	6.5				2.9	> 20	111 (≈ 50 µg/mL)			98.0	CC50 ([4]; HeLa-ACE2 cytotoxicity): > 20 µM; cc10 ([4]; HeLa-ACE2 cytotoxicity): > 20.0 µM; perc_max_measured ([4]; HeLa-ACE2 cytotoxicity): 100.334%; perc_min_measured ([4]; HeLa-ACE2 cytotoxicity): 94.258%; papp_a_to_b_mean ([8]; no inhibitor): 1.18 ×10⁻⁶ cm/s; perc_recovery_a_to_b_mean ([8]; no inhibitor): 65.0%
